Reference: ChEMBL document CHEMBL1857833, “Screening and optimization of specific chemical series against human African Trypanosomiasis (HAT)”
Converted amounts (≈) assume the structure as drawn. “And” between values parts separate entries of the source, which are not always exact repeats. Equal values may be shown once.

Experiments:
[1] = DNDI: Cytotoxicity against L929 mouse fibroblasts, 72 hour.; type: toxicity, cell-based; conditions: mouse, L929 mouse fibroblasts
[2] = tested on: Trypanosoma brucei; experiment: DNDI: Inhibition of Human African Trypanosomiasis, SBRI 427, in vitro; type: functional, organism-based
[3] = DNDI: Cytotoxicity against L929 mouse fibroblasts, CYTO-SP, 24 hour; type: toxicity, cell-based; conditions: mouse, L929 mouse fibroblasts
[4] = Trypanosoma brucei, SBRI 427, read-out: IC50

IC50 [2, 4]	IC50 [2]	Structure (SMILES)	IC50 at 72 h [1]	IC50 at 24 h [3]
3.56 µg/mL (≈ 12.3 µM)	–	CCCCCC(C)NCc1coc(-c2ccccc2O)n1 (stereo unspecified)	7.32 µg/mL (≈ 25.4 µM)	24 µg/mL (≈ 83.2 µM)
2.14 µg/mL (≈ 7.37 µM)	–	CCCCCC(C)NCc1coc(-c2cccc(F)c2)n1 (stereo unspecified)	7.19 µg/mL (≈ 24.8 µM)	19 µg/mL (≈ 65.4 µM)
5 µg/mL (≈ 14.3 µM)	–	C[C@@H]1[C@H]2C[C@@H](C[C@H]1N/C(=N\O)c1ccccc1-c1ccccc1)C2(C)C	–	17 µg/mL (≈ 48.8 µM)
> 5 µg/mL	–	O/N=C(/c1ccccc1-c1ccccc1)n1ccnc1	–	> 50 µg/mL
1.12 µg/mL (≈ 2.76 µM)	–	CCOc1ccccc1CN/C(=N\O)c1cccnc1Oc1ccc(C(C)C)cc1	–	38.6 µg/mL (≈ 95.1 µM)
0.59 µg/mL (≈ 1.89 µM)	–	Cc1cc(C)cc(Oc2ccc(/C(=N/O)NC3CCC3)cn2)c1	–	> 50 µg/mL
> 5 µg/mL	–	C[C@@H]1[C@@H](N/C(=N\O)c2ccccc2-c2ccccc2)C[C@H]2C[C@@H]1C2(C)C	–	17 µg/mL (≈ 48.8 µM)
0.59 µg/mL (≈ 1.81 µM)	–	Cc1cc(C)cc(Oc2ccc(/C(=N/O)NC3CCCC3)cn2)c1	–	< 50 µg/mL
1.25 µg/mL (≈ 3.81 µM)	–	CCCOc1ccc(-c2nc(CNC3CCCCCC3)co2)cc1	< 3.13 µg/mL	15.8 µg/mL (≈ 48.1 µM)
1.07 µg/mL (≈ 2.96 µM)	–	CCc1ccc(Oc2ncccc2/C(=N/O)NCc2ccccc2C)cc1	–	> 50 µg/mL
1.06 µg/mL (≈ 2.82 µM)	–	Cc1ccccc1CN/C(=N\O)c1cccnc1Oc1ccc(C(C)C)cc1	–	44.9 µg/mL (≈ 120 µM)
> 5 µg/mL	–	CCOc1ccc(-c2nc(CNC3C[C@@H]4C[C@H]([C@@H]3C)C4(C)C)co2)cc1 (stereo partly specified)	3.64 µg/mL (≈ 10.3 µM)	> 50 µg/mL
2.19 µg/mL (≈ 9.21 µM)	–	CCOc1ccc(-c2nc(CCl)co2)cc1	25.9 µg/mL (≈ 109 µM)	> 5 µg/mL
–	0.53 µg/mL and < 0.19 µg/mL	CSc1ccccc1Oc1ncccc1/C(=N/O)NCC1CC1	–	> 50 µg/mL
> 5 µg/mL	–	COc1ccccc1Oc1ncccc1C(=N)NC1CCCCC1	–	> 50 µg/mL
0.89 µg/mL (≈ 2.42 µM)	–	CC(C)c1ccc(Oc2ncccc2/C(=N/O)NCc2cccs2)cc1	–	> 50 µg/mL
1.09 µg/mL (≈ 3.1 µM)	–	CN(/C(=N\O)c1cccnc1OCc1cccc(F)c1)c1ccccc1	–	> 50 µg/mL
> 5 µg/mL	–	COc1ccccc1/C(N)=N/O	–	> 50 µg/mL
> 5 µg/mL	–	COc1ccccc1-c1noc(C(C)C)n1	–	> 50 µg/mL
–	–	CCCC(CCC)NCc1coc(-c2ccc(OCC)cc2)n1	6.37 µg/mL (≈ 20.1 µM)	> 50 µg/mL
0.83 µg/mL (≈ 2.27 µM)	–	O/N=C(\NC1CCCCC1)c1ccnc(Oc2cccc3c2CCCC3)c1	–	48.4 µg/mL (≈ 132 µM)
–	2.06 µg/mL and 0.92 µg/mL	CC1CCCC(NCc2coc(-c3ccccc3Br)n2)C1C (stereo unspecified)	–	> 50 µg/mL

IC50 [2, 4]	IC50 [2]	Structure (SMILES)	IC50 at 72 h [1]	IC50 at 24 h [3]
> 5 µg/mL	–	CCCNC/C(=N\O)c1ccc(OC)cc1	–	> 50 µg/mL
1.09 µg/mL (≈ 3.38 µM)	–	CCCCCC(C)NCc1coc(-c2ccc3ccccc3c2)n1 (stereo unspecified)	5.65 µg/mL (≈ 17.5 µM)	17 µg/mL (≈ 52.7 µM)
> 5 µg/mL	–	COc1cccc(/C(=N/O)N(C(=O)C(C)C)C(=O)C(C)C)c1	–	> 50 µg/mL
0.76 µg/mL (≈ 1.94 µM)	–	CCOc1ccccc1CN/C(=N\O)c1cccnc1Oc1ccc(CC)cc1	–	> 50 µg/mL
> 5 µg/mL	–	CCOc1ccc(-c2nc(CN(C)Cc3coc(-c4ccc(OCC)cc4)n3)co2)cc1	> 50 µg/mL	> 50 µg/mL
> 5 µg/mL	–	O/N=C(/NC1CCCCC1)c1ccc2ccccc2c1	–	21.1 µg/mL (≈ 78.7 µM)
2.6 µg/mL (≈ 8.83 µM)	–	O/N=C(\NC1CCCCC1)c1cccc(-c2ccccc2)c1	–	35 µg/mL (≈ 119 µM)
> 5 µg/mL	–	CCCCc1ccc(-c2nc(C)co2)cc1	42.1 µg/mL (≈ 195 µM)	> 50 µg/mL
0.69 µg/mL (≈ 1.88 µM)	–	CCCOc1ccc(-c2nc(CNC3[C@H]4C[C@@H]5C[C@@H](C[C@H]3C5)C4)co2)cc1 (stereo partly specified)	3.67 µg/mL (≈ 10 µM)	> 50 µg/mL
> 5 µg/mL	–	CON(C)C(=O)c1ccccc1-c1ccccc1	–	> 50 µg/mL
0.44 µg/mL (≈ 1.38 µM)	–	CCC(CC)N/C(=N\O)c1cccnc1OCC1CCCCC1	–	33.5 µg/mL (≈ 105 µM)
1.08 µg/mL (≈ 3.11 µM)	–	CCc1ccc(Oc2ncccc2/C(=N/O)NCc2ccccc2)cc1	–	> 50 µg/mL
0.49 µg/mL (≈ 1.4 µM)	–	CCC(C)(C)N/C(=N\O)c1cccnc1Oc1ccc2ccccc2c1	–	> 50 µg/mL
1.08 µg/mL (≈ 3.18 µM)	–	Cc1cc(C)cc(Oc2ccc(/C(=N/O)NC3CCCCC3)cn2)c1	–	> 50 µg/mL
> 5 µg/mL	–	CCOc1ccc(-c2nc(CNCc3ccccc3)co2)cc1	18.1 µg/mL (≈ 58.6 µM)	> 50 µg/mL
0.62 µg/mL (≈ 1.86 µM)	–	O/N=C(\NCC1CC1)c1cccnc1Oc1ccc2ccccc2c1	–	> 50 µg/mL
0.13 µg/mL (≈ 0.324 µM)	–	O/N=C(/c1cccnc1Oc1ccc2ccccc2c1)N1CCC2CCCCC2C1 (stereo unspecified)	–	> 50 µg/mL
0.77 µg/mL (≈ 2.35 µM)	–	Cc1cc(C)cc(Oc2ccc(/C(=N/O)NCC(C)(C)C)cn2)c1	–	> 50 µg/mL
> 5 µg/mL	–	COc1ccccc1Oc1ncccc1C(=N)N	–	> 50 µg/mL
2.42 µg/mL (≈ 7.89 µM)	–	CCCCCC(C)NCc1coc(-c2ccccc2Cl)n1 (stereo unspecified)	7.17 µg/mL (≈ 23.4 µM)	17 µg/mL (≈ 55.4 µM)
1.08 µg/mL (≈ 2.86 µM)	–	CCc1ccc(Oc2ncccc2/C(=N/O)NCc2ccccc2OC)cc1	–	> 50 µg/mL
0.91 µg/mL (≈ 2.52 µM)	–	CC1CCC(C)N1/C(=N\O)c1ccc(Oc2ccc3ccccc3c2)nc1 (stereo unspecified)	–	> 50 µg/mL

IC50 [2, 4]	IC50 [2]	Structure (SMILES)	IC50 at 72 h [1]	IC50 at 24 h [3]
> 5 µg/mL	–	CCCCc1ccc(-c2nc(-c3ccccc3)co2)cc1	26.6 µg/mL (≈ 96 µM)	> 50 µg/mL
0.54 µg/mL (≈ 1.37 µM)	–	CC1CC(N/C(=N\O)c2cccnc2Oc2ccc(C(C)C)cc2)CC(C)(C)C1 (stereo unspecified)	–	21.9 µg/mL (≈ 55.4 µM)
> 5 µg/mL	–	O/N=C(\NC1CCCCC1)c1ccc(Br)cc1	–	38 µg/mL (≈ 128 µM)
> 5 µg/mL	–	CCOc1ccc(-c2nc(CN[C@]34C[C@H]5C[C@H](C[C@H](C5)C3)C4)co2)cc1	28.4 µg/mL (≈ 80.5 µM)	> 50 µg/mL
3.41 µg/mL (≈ 13 µM)	–	COc1ccc(/C(=N/O)NCC2CCCCC2)cc1	–	> 50 µg/mL
> 5 µg/mL	–	COc1ccc(/C(CO)=N/O)cc1	–	> 50 µg/mL
> 5 µg/mL	–	COc1cccc(/C(N)=N/O)c1	–	> 50 µg/mL
0.96 µg/mL (≈ 2.73 µM)	–	CC(C)c1ccc(Oc2ncccc2/C(=N/O)NCc2ccco2)cc1	–	> 50 µg/mL
> 5 µg/mL	–	COc1ccc(C(=O)NC2CCCCC2)cc1	–	> 50 µg/mL
0.82 µg/mL (≈ 2.32 µM)	–	COCC(C)N/C(=N\O)c1ccnc(Oc2ccc(F)c(Cl)c2)c1 (stereo unspecified)	–	> 50 µg/mL
> 5 µg/mL	–	COc1cccc(-c2noc(C(C)C)n2)c1	–	> 50 µg/mL
> 5 µg/mL	–	COc1ccc(-c2noc(C(C)C)n2)cc1	–	> 50 µg/mL
> 5 µg/mL	–	COc1ccc(C(=O)N(C)OC)cc1	–	> 50 µg/mL
1.02 µg/mL (≈ 3.28 µM)	–	Cc1cc(C)cc(Oc2ccc(/C(=N/O)NCC3CC3)cn2)c1	–	> 50 µg/mL
4.1 µg/mL (≈ 14.3 µM)	–	CCCCCC(C)NCc1coc(-c2ccccc2C)n1 (stereo unspecified)	3.6 µg/mL (≈ 12.6 µM)	16 µg/mL (≈ 55.9 µM)
> 5 µg/mL	–	OC/C(=N\O)c1ccccc1	–	> 50 µg/mL
0.54 µg/mL (≈ 1.52 µM)	–	CC(C)c1ccc(Oc2ncccc2/C(=N/O)NCC2CCCO2)cc1 (stereo unspecified)	–	> 50 µg/mL
0.98 µg/mL (≈ 2.53 µM)	–	CC(C)c1ccc(Oc2ncccc2/C(=N/O)NC2CCc3ccccc32)cc1 (stereo unspecified)	–	45.1 µg/mL (≈ 116 µM)
> 5 µg/mL	–	CCN(CC)/C(=N\O)c1ccccc1-c1ccccc1	–	> 50 µg/mL
> 5 µg/mL	–	COc1ccc(C(=O)NC2CCCCC2)c(OC)c1	–	> 50 µg/mL
3.28 µg/mL (≈ 11 µM)	–	O/N=C(\NC1CCCCC1)c1cccc(Br)c1	–	39 µg/mL (≈ 131 µM)
> 5 µg/mL	–	COc1cc(C)ccc1Oc1ncccc1C(=N)N	–	> 50 µg/mL

IC50 [2, 4]	IC50 [2]	Structure (SMILES)	IC50 at 72 h [1]	IC50 at 24 h [3]
0.92 µg/mL (≈ 2.68 µM)	–	COCC(C)N/C(=N\O)c1cccnc1Oc1ccc(C(C)C)cc1 (stereo unspecified)	–	> 50 µg/mL
5 µg/mL (≈ 15.8 µM)	–	CCc1ccc(N/C(=N/O)c2ccccc2-c2ccccc2)cc1	–	15.6 µg/mL (≈ 49.4 µM)
0.96 µg/mL (≈ 3.46 µM)	–	CC(C)COc1ncccc1/C(=N/O)NC1CCCC1	–	> 50 µg/mL
3.92 µg/mL (≈ 16.6 µM)	–	O/N=C(\NC1CCCCC1)c1ccccc1F	–	> 50 µg/mL
> 5 µg/mL	–	O/N=C(/c1ccccc1-c1ccccc1)N1CCCCCCC1	–	> 50 µg/mL
1.05 µg/mL (≈ 2.96 µM)	2.05 µg/mL (≈ 5.78 µM)	CCOc1ccccc1-c1nc(CNC2C[C@@H]3C[C@H]([C@H]2C)C3(C)C)co1 (stereo partly specified)	–	27.8 µg/mL (≈ 78.4 µM)
> 5 µg/mL	–	COc1ccc(/C(CNC(C)C)=N/O)cc1	–	> 50 µg/mL
4.1 µg/mL (≈ 13.1 µM)	–	CCOc1ccc(-c2nc(CNC3CC4CCC3C4)co2)cc1 (stereo unspecified)	4.62 µg/mL (≈ 14.8 µM)	35 µg/mL (≈ 112 µM)
> 5 µg/mL	–	COc1ccccc1/C(=N/O)N(C(=O)C(C)C)C(=O)C(C)C	–	> 50 µg/mL
> 5 µg/mL	–	O/N=C(\NC1CCCCC1)c1cccc(F)c1	–	> 50 µg/mL
> 5 µg/mL	–	CCCCc1ccc(-c2nc(C(F)(F)F)co2)cc1	43.8 µg/mL (≈ 163 µM)	> 50 µg/mL
1.37 µg/mL (≈ 3.84 µM)	–	CCCOc1ccc(-c2nc(CNC3CC(C)CC(C)(C)C3)co2)cc1 (stereo unspecified)	< 3.13 µg/mL	15.9 µg/mL (≈ 44.5 µM)
0.74 µg/mL (≈ 2.01 µM)	–	CCCOc1ccc(-c2nc(CNC[C@@H]3CC[C@H]4C[C@@H]3C4(C)C)co2)cc1	< 3.13 µg/mL	16 µg/mL (≈ 43.5 µM)
1.22 µg/mL (≈ 3.13 µM)	0.94 µg/mL (≈ 2.41 µM)	C[C@H]1C(NCc2coc(-c3ccccc3Br)n2)C[C@@H]2C[C@H]1C2(C)C (stereo partly specified)	–	43.2 µg/mL (≈ 111 µM)
> 5 µg/mL	–	O/N=C(\NC1CCCCC1)c1ccccc1Br	–	> 50 µg/mL
3.33 µg/mL (≈ 11.6 µM)	–	CCCCCC(C)NCc1coc(-c2cccc(C)c2)n1 (stereo unspecified)	7.13 µg/mL (≈ 24.9 µM)	16 µg/mL (≈ 55.9 µM)
> 5 µg/mL	–	CCCCc1ccc(-c2nc(C(C)(C)C)co2)cc1	28.7 µg/mL (≈ 112 µM)	> 50 µg/mL
0.08 µg/mL (≈ 0.221 µM)	–	O/N=C(\NC1CCCCC1)c1cccnc1Oc1ccc2ccccc2c1	–	> 50 µg/mL
> 5 µg/mL	–	COc1ccc(/C(=N/O)N(C(=O)C(C)C)C(=O)C(C)C)cc1	–	> 50 µg/mL
1.06 µg/mL (≈ 3.02 µM)	–	CN(/C(=N\O)c1cccnc1OCc1ccccc1F)c1ccccc1	–	> 50 µg/mL
> 5 µg/mL	–	COc1ccc(C(=N)NO)cc1	–	> 50 µg/mL
